“Also recorded” adds a separate entry of the source.
How the values were obtained:
LPS challenged mice = experiment: LPS-induced acute lung inflammation in mice: BAL fluid cell counts, MPO, serum albumin; type: in vivo; settings: 10 mg/kg i.p. immediately after LPS challenge; 3 h
human neutrophils = experiment: Human neutrophil chemotaxis (ChemoTX) towards recombinant human chemokines; type: cell-based; settings: 50 ng/ml; 45 min; 5×10^4 neutrophils per well
Description: FIG. 17. Healthy human volunteers were challenged with nebulized 0.9% saline […] (final LPS dose was 50 μg) and BAL fluid collected 6 hours later. CCL7 protein levels in BAL fluid from saline-treated or LPS-challenged human volunteers were measured by ELISA (a). Human neutrophil chemotaxis was measured across 5 μm membranes (ChemoTX, NeuroProbe) in response to recombinant human (rh) CXCL8 or rhCCL7 (b). Neutrophil chemotaxis towards LPS-treated human BAL fluid was measured in the presence of neutralizing anti-CXCL8 or anti-CCL7 antibodies (c). BAL fluid was collected from patients suffering with ALI on intensive care units. CCL7 protein (d) and CCL2 protein (f) in ALI BAL fluid was measured by ELISA. Neutrophil chemotaxis towards BAL fluid obtained from patients with ALI was measured in the presence of neutralizing anti-CXCL8 and ant-CCL7 antibodies (e). […]
Although it is widely accepted that CXCL8 (IL-8) is an important chemokine in human neutrophilic lung disease (Miller, E. J. et al Am. Rev. Respir. Dis. 146, 427-432 (1992)), it is far from clear whether other chemokines are associated with disease pathogenesis. […] For these studies, CCL7 was measured by ELISA in BAL fluid from healthy volunteers challenged with LPS (50 μg) at 6 hours as previously described (Shyamsundar, M. et al Am. J. Respir. Crit Care Med. 179, 1107-1114 (2009)). […]

naïve mice = experiment: Intranasal administration of recombinant CCL2 or CCL7 to naïve mice, BAL fluid cell counts; type: in vivo; settings: 500 ng/mouse i.n., 3 h; for total cell number recovered from BAL fluid: compared to saline treated controls
Description: FIG. 15. Naïve mice were administered with either rCCL2 or rCCL7 (500 ng/mouse, i.n.) and 3 h later BAL fluid was recovered. BAL fluid total cell counts (A) and total neutrophils (B) were calculated from differential cell counts performed on cytospin preparations. The percentage of neutrophils in BAL fluid was also calculated (C). Differential cell counts were performed on cytospin preparations following saline (D), rCCL2 (E) or rCCL7 (F) administration. Data were analysed by one way ANOVA with Newman-Keuls post hoc test: *p<0.05, **p<0.01,*** p<0.001. Arrows indicate: N, neutrophil; M, monocyte/macrophage.
In order to determine the whether CCL2 and CCL7 are able to directly recruit leukocytes into the lung, recombinant CCL2 or CCL7 was administered into the lungs of naïve mice and sampled the BAL fluid after 3 h. […] Differential cell counts were performed on cytospin preparations following saline (FIG. 15D), rCCL2 (FIG. 15E) or rCCL7 (FIG. 15F) administration.

Compound	migration of neutrophils compared to media alone (human neutrophils)	recruitment of neutrophils into lung airspaces (naïve mice)	total cell number recovered from BAL fluid (naïve mice)	other results
CCOC(=O)N[C@@H]1CC[C@@H]2[C@@H](C1)C[C@H]1C(=O)O[C@H](C)[C@H]1[C@H]2/C=C/c1ccc(-c2cccc(F)c2)cn1 [SCH530348]				neutrophil numbers in the airspaces (BAL fluid) (LPS challenged mice): significantly decreased; total cell numbers in the airspaces (BAL fluid) (LPS challenged mice): significantly decreased
CCL7: Recombinant human CCL7 (Peprotech)	did not influence			
CXCL8: Recombinant human CXCL8 (IL-8) (Peprotech)	increased			
rCCL2: recombinant CCL2		resulted in the recruitment of a neutrophils	increased; also recorded: greater number of leukocytes compared to rCCL7	
rCCL7: recombinant CCL7		resulted in the recruitment of a neutrophils	increased	neutrophils as a percentage of total cells recovered from BAL fluid (naïve mice): preferential accumulation of neutrophils compared to rCCL2
